For one experiment, the target named is T1, JAK2 JH2 (Homo sapiens, UniProt O60674).
T1 construct: JAK2 JH2
As to the kind of experiment: KINOMEscan binding, JAK2 JH2.

In the next experiment the target is T2, JAK1 JH2 (Homo sapiens, UniProt P23458).
T2 construct: JAK1 JH2
As to the kind of experiment: KINOMEscan binding, JAK1 JH2.

The next experiment relates to IFNa, PBMCs, p-STAT3. As to the kind of experiment: IFNa induced p-STAT3 in PBMCs. Particulars: PBMC; human PBMCs, IFNa stimulation. It counts as cell-based.
In a further experiment the target is T3, JAK2 JH1 (Homo sapiens, UniProt O60674).
T3 construct: JAK2 JH1
As to the kind of experiment: KINOMEscan binding, JAK2 JH1.

The target in a further experiment is T4, JAK1 JH1 (Homo sapiens, UniProt P23458).
T4 construct: JAK1 JH1
As to the kind of experiment: KINOMEscan binding, JAK1 JH1.

For experiment [1], the target named is T5, human TYK2 (JH2domain-pseudokinase) (Homo sapiens, UniProt P29597).
T5 construct: host or cells: transiently transfected HEK293 cells; unpurified extract
Description: TYK2 JH2 domain binding assay (KINOMEscan). Here is the method: Binding constants for the compounds described herein against the JH2 domain were determined by the following protocol for a KINOMEscan® assay (DiscoveRx). A fusion protein of a partial length construct of human TYK2 (JH2domain-pseudokinase) (amino acids G556 to D888 based on reference sequence NP_003322.3) and the DNA binding domain of NFkB was expressed in transiently transfected HEK293 cells. From these HEK 293 cells, extracts were prepared in M-PER extraction buffer (Pierce) in the presence of Protease Inhibitor Cocktail Complete (Roche) and Phosphatase Inhibitor Cocktail Set II (Merck) per manufacturers' instructions. The TYK2 (JH2domain-pseudokinase) fusion protein was labeled with a chimeric double-stranded DNA tag containing the NFkB binding site fused to an amplicon for qPCR readout, which was added directly to the expression extract (the final concentration of DNA-tag in the binding reaction is 0.1 nM).
Streptavidin-coated magnetic beads (Dynal M280) were treated with a biotinylated small molecule ligand for 30 minutes at room temperature to generate affinity resins the binding assays. The liganded beads were blocked with excess biotin and washed with blocking buffer (SeaBlock (Pierce), 1% BSA, 0.05% Tween 20, 1 mM DTT) to remove unbound ligand and to reduce nonspecific binding.
The binding reaction was assembled by combining 16 μl of DNA-tagged kinase extract, 3.8 μl liganded affinity beads, and 0.18 μl test compound (PBS/0.05% Tween 20/10 mM DTT/0.1% BSA/2 μg/ml sonicated salmon sperm DNA)]. Extracts were used directly in binding assays without any enzyme purification steps at a ≥10,000-fold overall stock dilution (final DNA-tagged enzyme concentration <0.1 nM). Extracts were loaded with DNA-tag and diluted into the binding reaction in a two-step process. First extracts were diluted 1:100 in 1× binding buffer (PBS/0.05% Tween 20/10 mM DTT/0.1% BSA/2 μg/ml sonicated salmon sperm DNA) containing 10 nM DNA-tag. This dilution was allowed to equilibrate at room temperature for 15 minutes and then subsequently diluted 1:100 in 1× binding buffer. Test compounds were prepared as 111× stocks in 100% DMSO. Kds were determined using an 11-point 3-fold compound dilution series with three DMSO control points. All compounds for Kd measurements were distributed by acoustic transfer (non-contact dispensing) in 100% DMSO. The compounds were then diluted directly into the assays such that the final concentration of DMSO was 0.9%. All reactions were performed in polypropylene 384-well plates. Each was a final volume of 0.02 mL. Assays were incubated with shaking for 1 hour at room temperature. Then the beads were pelleted and washed with wash buffer (1×PBS, 0.05% Tween 20) to remove displaced kinase and test compound. The washed based were re-suspended in elution buffer (1×PBS, 0.05% Tween 20, 0.5 μM non-biotinylated affinity ligand) and incubated at room temperature with shaking for 30 minutes. The kinase concentration in the eluates was measured by qPCR. qPCR reactions were assembled by adding 2.5 μL of kinase eluate to 7.5 μL of qPCR master mix containing 0.15 μM amplicon primers and 0.15 μM amplicon probe. The qPCR protocol consisted of a 10 minute hot start at 95° C., followed by 35 cycles of 95° C. for 15 seconds, 60° C. for 1 minute.
Test compounds were prepared as 111× stocks in 100% DMSO. Kds were determined using an 11-point 3-fold compound dilution series with three DMSO control points. All compounds for Kd measurements were distributed by acoustic transfer (non-contact dispensing) in 100% DMSO. The compounds were then diluted directly into the assays such that the final concentration of DMSO was 0.9%. The Kds were determined using a compound top concentration of 30,000 nM. Kd measurements were performed in duplicate.
Binding constants (Kds) were calculated with a standard dose-response curve using the Hill equation: […]
The Hill Slope was set to −1. […]

The subject of a further experiment is IFNa, PBMCs, p-STAT5. Description: INFα induced pSTAT5 in human PBMC. It is filed as cell-based. Particulars: 0.25 h, IFNa 5000 units/ml, 15 minutes. The protocol: Fresh Human PBMCs were resuspended in RPMI 1640 medium with 10% FBS. Cells were seeded in a round bottom 96-well plate at the concentration of 200,000 cells/well. A 10-point dilution series of test compound (top dose 10 uM, 1:5 dilution) was added to the well using the liquid dispenser (Tecan D300e) and incubated for 1 hour at 37 C. Then human INFα recombinant protein (R&D Systems) was added to the well at the final concentration of 5000 units/ml and incubated for 15 minutes at 37 C. Cell lysates were prepared and analyzed by Phospho STAT5 (Tyr693) Kit (Meso Scale Discovery) following manufacturer's protocol.
For calculation of the inhibition rate, the relative pSTAT5 signal of each well=pSTAT5 signal of each well−the average pSTAT5 signal of baseline.
The inhibition %=(the average pSTAT5 signal of INFα treatment wells−the relative of pSTAT5 signal in each compound containing well)/the average pSTAT5 signal of INFα treatment wells*100%
The curve was plotted as the inhibition % (y-axis) vs. compounds concentration (x-axis) and is fitted with log (inhibitor) vs. normalized response—Variable slope by GraphPad Prism7.0.

In the next experiment the target is T6, TYK2 JH1 (Homo sapiens, UniProt P29597).
T6 construct: TYK2 JH1
T6 sequence (P29597 897-1176 limits assumed): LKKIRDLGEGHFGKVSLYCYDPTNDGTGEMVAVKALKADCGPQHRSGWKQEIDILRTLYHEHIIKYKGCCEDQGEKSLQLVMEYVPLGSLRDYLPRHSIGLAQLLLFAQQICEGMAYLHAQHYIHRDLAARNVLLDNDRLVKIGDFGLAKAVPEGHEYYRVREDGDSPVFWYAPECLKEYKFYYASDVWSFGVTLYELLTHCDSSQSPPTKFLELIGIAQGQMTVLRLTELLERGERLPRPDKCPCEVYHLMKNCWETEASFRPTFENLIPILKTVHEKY
As to the kind of experiment: KINOMEscan binding, TYK2 JH1.

In a further experiment the target is T7, JAK3 JH1 (Homo sapiens, UniProt P52333).
T7 construct: JAK3 JH1
Description: KINOMEscan binding, JAK3 JH1.

Where only a bound is given, the exact number is not on record here.

T4 sequence (P23458 875-1153 limits assumed): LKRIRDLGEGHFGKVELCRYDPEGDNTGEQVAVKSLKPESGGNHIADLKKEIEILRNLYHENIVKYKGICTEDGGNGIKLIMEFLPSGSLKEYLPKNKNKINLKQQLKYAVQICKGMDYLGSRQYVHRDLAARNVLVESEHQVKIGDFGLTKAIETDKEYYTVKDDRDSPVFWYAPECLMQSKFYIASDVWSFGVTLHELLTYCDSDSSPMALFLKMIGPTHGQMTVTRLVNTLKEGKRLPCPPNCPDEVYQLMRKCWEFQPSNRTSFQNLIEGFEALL
T1 sequence (O60674 545-809 limits assumed): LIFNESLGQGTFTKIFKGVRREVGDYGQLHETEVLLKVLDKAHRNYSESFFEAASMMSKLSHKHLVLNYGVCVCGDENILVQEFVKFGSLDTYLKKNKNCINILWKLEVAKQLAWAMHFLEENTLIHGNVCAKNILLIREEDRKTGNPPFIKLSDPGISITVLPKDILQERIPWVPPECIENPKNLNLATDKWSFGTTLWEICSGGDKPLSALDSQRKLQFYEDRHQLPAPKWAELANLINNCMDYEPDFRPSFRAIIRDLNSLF
T5 sequence (P29597 556-888): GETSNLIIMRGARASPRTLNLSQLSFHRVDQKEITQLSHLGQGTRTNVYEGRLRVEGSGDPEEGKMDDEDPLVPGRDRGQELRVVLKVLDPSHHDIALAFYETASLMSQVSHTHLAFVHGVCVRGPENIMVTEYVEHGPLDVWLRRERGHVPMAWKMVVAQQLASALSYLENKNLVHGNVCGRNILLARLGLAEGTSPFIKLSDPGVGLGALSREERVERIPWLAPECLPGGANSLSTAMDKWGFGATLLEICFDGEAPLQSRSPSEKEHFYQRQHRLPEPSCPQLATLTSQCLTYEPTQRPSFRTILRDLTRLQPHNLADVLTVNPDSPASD
T2 sequence (P23458 583-855 limits assumed): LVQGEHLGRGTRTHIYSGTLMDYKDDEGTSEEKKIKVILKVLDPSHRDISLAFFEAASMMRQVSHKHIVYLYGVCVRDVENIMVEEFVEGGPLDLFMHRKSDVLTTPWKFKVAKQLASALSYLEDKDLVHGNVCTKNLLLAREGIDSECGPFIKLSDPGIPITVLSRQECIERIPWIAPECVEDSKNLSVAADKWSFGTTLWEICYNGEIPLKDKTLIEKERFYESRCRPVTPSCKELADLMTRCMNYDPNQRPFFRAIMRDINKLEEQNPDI
T3 sequence (O60674 849-1124 limits assumed): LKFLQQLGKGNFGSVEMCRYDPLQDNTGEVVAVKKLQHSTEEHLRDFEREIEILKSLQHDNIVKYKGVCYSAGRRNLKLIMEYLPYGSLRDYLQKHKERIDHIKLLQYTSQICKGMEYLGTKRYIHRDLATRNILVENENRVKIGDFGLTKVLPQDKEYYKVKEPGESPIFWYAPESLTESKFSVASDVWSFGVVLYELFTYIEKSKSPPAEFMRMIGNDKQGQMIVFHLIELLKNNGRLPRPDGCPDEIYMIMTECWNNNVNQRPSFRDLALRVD
T7 sequence (P52333 822-1111 limits assumed): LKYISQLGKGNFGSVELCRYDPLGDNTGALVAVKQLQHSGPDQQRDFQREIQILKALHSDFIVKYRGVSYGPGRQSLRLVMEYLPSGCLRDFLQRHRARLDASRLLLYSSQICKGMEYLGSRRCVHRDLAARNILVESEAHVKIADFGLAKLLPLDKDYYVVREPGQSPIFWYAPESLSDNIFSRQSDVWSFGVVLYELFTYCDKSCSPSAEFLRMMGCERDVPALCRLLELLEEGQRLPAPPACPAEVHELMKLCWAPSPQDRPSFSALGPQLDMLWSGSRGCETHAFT

Consider `CNc1cc2nn3c(cnc13)C(=O)N[C@@H]1CCC[C@H]1OCc1cc(c3nn(C)nc3c1)N2` [Compound 4, (1^5E,3^4E,6^1R,6^2R)-3^2-Methyl-1^8-(methylamino)-3^2H-5-oxa-2,7-diaza-1(6,3),3(4,6)-diimidazo[1,2-b]pyridazina-6(1,2)-cyclopentanacyclooctaphan-8-one], for which the Kd at JAK2 JH2 was 1 to 10 µM; on JAK1 JH2, 0.01 to 1 µM; at JAK2 JH1 it was 1 to 10 µM; at JAK1 JH1 it was at least 30 µM; in experiment [1], below 0.01 µM; on TYK2 JH1 it was 10 to 30 µM. Also, at JAK3 JH1, the Kd was in the range of 10 to 30 µM. Besides, the IC50 with IFNa, PBMCs, p-STAT3 is below 0.1 µM; with IFNa, PBMCs, p-STAT5, below 0.1 µM.

The term Kd denotes a measure of binding affinity in units of concentration. High values mean weaker binding, low ones tighter binding. Usually IC50 stands for the concentration needed to halve the response being measured. Low values mean greater potency, high ones weaker potency.

The values are drawn from US20250188093A1, “TYK2 INHIBITORS AND USES THEREOF” (Alumis Inc., priority 2022, published 2025).
